{"source": "patent US20020082263A1", "about": "“Heterocycle derivatives as PPAR-gamma agonists” (priority 2000, published 2002)", "key": {"[1]": {"test_system": "db/db mice (C578BL/KsJ-db/db Jcl)", "assay": "Effect on serum glucose and serum insulin in db/db mice", "format": "in vivo, mouse", "conditions": "oral; for Serum Glucose (% reduction) / Serum Insulin (% reduction): blood 1.5 h after last dose vs pretreatment blood, mean ± SEM", "protocol": "Compounds prepared in accordance with Examples 8 and 36 were evaluated for their effect on serum glucose and serum insulin in db/db mice (C578BL/KsJ-db/db Jcl). The compounds were dissolved in a vehicle consisting of 2% Tween80 in distilled water and administered orally. Dosage volume was 10 ml/kg body weight. All aspects of the work including experimentation and disposal of the animals was performed in general accordance with the International Guiding Principles for Biomedical Research Involving Animals (CIOMS Publication No. ISBN 92 90360194, 1985). Glucose-HA Assay kits (Wako, Japan) were used for determination of serum glucose and ELISA Mouse Insulin Assay kits (SPI bio, France) were utilized for determination of insulin. The positive control was troglitazone (Helios Pharmaceutical, Louisville, Ky.).\nThe animals were divided into twenty groups of four animals each. The animals weighed 52±5 gms at age 8-10 weeks. During the experiment the animals were provided free access to laboratory chow (Fwusow Industry Co., Taiwan) and water\nPrior to any treatment a blood sample (pretreatment blood) was taken from each animal. Four groups of animals, the vehicle groups, received only doses of the vehicle. Each of the vehicle groups received of 100, 30, 10 or 1 ml/kg body weight of the vehicle orally. […] The compound of Example 8 was administered orally as a solution (10 ml/kg body weight in tween 80/water) to four groups of animals with each group receiving a different dose of the compound. The dosage rates were […] body weight with only one dosage rate administered to each group. […] The vehicle, positive control and test compound solutions were administered to the groups immediately, 24 hours and 48 hours after drawing the pretreatment blood. Blood was withdrawn (post treatment blood) 1.5 hours after administration of the last dose.\nThe serum glucose levels of the blood samples was determined enzymatically (Mutaratose-GOD) and the insulin levels by ELISA (mouse insulin assay kit). The mean ±SEM of each group was calculated and the percent inhibition of serum glucose and insulin was obtained by comparison between pretreatment blood and post treatment blood. The percentage of reduction of the serum glucose and insulin levels in the post treatment blood relative to the pretreatment blood was determined and the Unpaired students t test was applied for the comparison between the control and test solution groups and the vehicle group. A significant difference was considered at P<0.05."}, "PPAR-gamma": {"molecular_target": "T1, PPAR-gamma (Homo sapiens, UniProt P37231)", "T1 construct": "host or cells: HepG2 (human hepatoma), transfected", "T1 sequence (P37231 1-505)": "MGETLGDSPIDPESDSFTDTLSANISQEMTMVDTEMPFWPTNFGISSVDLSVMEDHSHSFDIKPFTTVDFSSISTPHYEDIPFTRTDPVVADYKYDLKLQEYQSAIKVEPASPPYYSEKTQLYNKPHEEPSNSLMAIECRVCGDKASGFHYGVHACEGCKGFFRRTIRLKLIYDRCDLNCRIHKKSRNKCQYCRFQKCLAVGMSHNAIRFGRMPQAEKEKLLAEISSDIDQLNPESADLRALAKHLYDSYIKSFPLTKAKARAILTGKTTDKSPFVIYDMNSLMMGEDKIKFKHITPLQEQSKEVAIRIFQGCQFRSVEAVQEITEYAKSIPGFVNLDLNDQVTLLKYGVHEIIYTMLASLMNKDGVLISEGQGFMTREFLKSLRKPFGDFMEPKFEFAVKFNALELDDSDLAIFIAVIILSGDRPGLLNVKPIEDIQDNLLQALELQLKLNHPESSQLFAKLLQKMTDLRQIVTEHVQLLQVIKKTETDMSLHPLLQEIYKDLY", "assay": "Reporter gene assay in transfected HepG2 cells: transcriptional activation of a PPRE via a PPAR-gamma mediated pathway", "format": "cell-based", "conditions": "transfected human hepatoma (HepG2) cells, 36-48 h exposure, reporter gene activity", "protocol": "A reporter gene assay utilizing transfected human hepatoma (HepG2) cells is used to screen for compounds that transcriptionally activate a PPRE via a PPAR-gamma mediated pathway. Cells are exposed to experimental compounds dissolved in DMSO for 36-48 h prior to determination of reporter gene activity. 15dPGJ2 (2 μM) is used as positive control and vehicle (DMSO) is used as a negative control."}, "[2]": {"conditions": "100 mg/kg body weight, P<0.01, unpaired t test"}}, "note": "pEC50: −log10 of the molar value."}
{"smiles": "COc1cc(CN2C[C@@H](CC(=O)NCC3CCCO3)N(C(=O)NC3CCCCC3)[C@@H](CC(C)C)C2=O)cc(OC)c1", "note": "(stereo partly drawn) [Example 8, N-Tetrahydrofurfuryl (R)-[1-cyclohexylcarbamoyl-4-(3,5-dimethoxybenzyl)-6-(S)-isobutyl-5-oxo-piperazin-2-yl]-acetamide]", "values": [{"measurement": "Serum Glucose (% reduction)", "setting": "[1]; 1 mg/kg at 0, 24 and 48 h", "value": "9 ± 8", "unit": "%"}, {"measurement": "Serum Insulin (% reduction)", "setting": "[1]; 1 mg/kg at 0, 24 and 48 h", "value": "3 ± 7", "unit": "%"}, {"measurement": "Serum Glucose (% reduction)", "setting": "[1]; 3 mg/kg at 0, 24 and 48 h", "value": "−1 ± 3", "unit": "%"}, {"measurement": "Serum Insulin (% reduction)", "setting": "[1]; 3 mg/kg at 0, 24 and 48 h", "value": "−7 ± 3", "unit": "%"}, {"measurement": "Serum Glucose (% reduction)", "setting": "[1]; 10 mg/kg at 0, 24 and 48 h", "value": "18 ± 6", "unit": "%"}, {"measurement": "Serum Insulin (% reduction)", "setting": "[1]; 10 mg/kg at 0, 24 and 48 h", "value": "1 ± 4", "unit": "%"}, {"measurement": "Serum Glucose (% reduction)", "setting": "[1]; 30 mg/kg at 0, 24 and 48 h", "value": "14 ± 2", "unit": "%"}, {"measurement": "Serum Insulin (% reduction)", "setting": "[1]; 30 mg/kg at 0, 24 and 48 h", "value": "5 ± 4", "unit": "%"}, {"measurement": "Serum Glucose (% reduction)", "setting": "[1]; 100 mg/kg at 0, 24 and 48 h", "value": "41 ± 6", "unit": "%"}, {"measurement": "Serum Insulin (% reduction)", "setting": "[1]; 100 mg/kg at 0, 24 and 48 h", "value": "6 ± 2.5", "unit": "%"}, {"measurement": "reduction of serum glucose relative to the vehicle treated groups (in words)", "setting": "[1]; [2]", "value": "significant reduction"}]}
{"smiles": "CNC(=O)CC1CN(Cc2cc(OC)cc(OC)c2)C(=O)[C@H](CC(C)C)N1C(=O)NC1CCCCC1", "note": "(stereo partly drawn) [Example 32, N-Methyl[1-cyclohexylcarbamoyl-4-(3,5-dimethoxybenzyl)-6-(S)-isobutyl-5-oxo-piperazin-2-yl]-acetamide]", "values": [{"measurement": "pEC50", "setting": "PPAR-gamma", "value": 6.21}]}
{"smiles": "CCCCNC(=O)CC1CN(Cc2cc(OC)cc(OC)c2)C(=O)[C@H](CC(C)C)N1C(=O)NC1CCCCC1", "note": "(stereo partly drawn) [Example 35, N-Butyl[1-cyclohexylcarbamoyl-4-(3 ,5-dimethoxybenzyl)-6-(S)-isobutyl-5-oxo-piperazin-2-yl]-acetamide]", "values": [{"measurement": "pEC50", "setting": "PPAR-gamma", "value": 6.92}]}
{"smiles": "CCCCNC(=O)C[C@@H]1CN(Cc2cc(OC)cc(OC)c2)C(=O)[C@H](CC(C)C)N1C(=O)NC1CCCCC1", "note": "[Example 36, N-Butyl (R)-[1-cyclohexylcarbamoyl-4-(3 5-dimethoxybenzyl)-6-(S)-isobutyl-5-oxo-piperazin-2-yl]-acetamide]", "values": [{"measurement": "Serum Glucose (% reduction)", "setting": "[1]; 1 mg/kg at 0, 24 and 48 h", "value": "−1 ± 2", "unit": "%"}, {"measurement": "Serum Insulin (% reduction)", "setting": "[1]; 1 mg/kg at 0, 24 and 48 h", "value": "8 ± 7", "unit": "%"}, {"measurement": "Serum Glucose (% reduction)", "setting": "[1]; 3 mg/kg at 0, 24 and 48 h", "value": "0 ± 2", "unit": "%"}, {"measurement": "Serum Insulin (% reduction)", "setting": "[1]; 3 mg/kg at 0, 24 and 48 h", "value": "−9 ± 2", "unit": "%"}, {"measurement": "Serum Glucose (% reduction)", "setting": "[1]; 10 mg/kg at 0, 24 and 48 h", "value": "−4 ± 7", "unit": "%"}, {"measurement": "Serum Insulin (% reduction)", "setting": "[1]; 10 mg/kg at 0, 24 and 48 h", "value": "−9 ± 6", "unit": "%"}, {"measurement": "Serum Glucose (% reduction)", "setting": "[1]; 30 mg/kg at 0, 24 and 48 h", "value": "37 ± 8", "unit": "%"}, {"measurement": "Serum Insulin (% reduction)", "setting": "[1]; 30 mg/kg at 0, 24 and 48 h", "value": "1 ± 2", "unit": "%"}, {"measurement": "reduction of serum glucose relative to the vehicle treated groups (in words)", "setting": "[1]; 30 mg/kg body weight, P<0.05, unpaired t test", "value": "significant reduction"}, {"measurement": "Serum Glucose (% reduction)", "setting": "[1]; 100 mg/kg at 0, 24 and 48 h", "value": "40 ± 7", "unit": "%"}, {"measurement": "Serum Insulin (% reduction)", "setting": "[1]; 100 mg/kg at 0, 24 and 48 h", "value": "2 ± 4", "unit": "%"}, {"measurement": "reduction of serum glucose relative to the vehicle treated groups (in words)", "setting": "[1]; [2]", "value": "significant reduction"}]}
{"smiles": "CCCC[C@H]1C(=O)N(Cc2cc(OC)cc(OC)c2)CC(CC(=O)NC)N1C(=O)NC1CCCCC1", "note": "(stereo partly drawn) [Example 41, N-Methyl[1-cyclohexylcarbamoyl-4-(3,5-dimethoxybenzyl)-6-(S)-butyl-5-oxo-piperazin-2-yl]-acetamide]", "values": [{"measurement": "pEC50", "setting": "PPAR-gamma", "value": 5.63}]}
{"smiles": "CCNC(=O)CC1CN(Cc2cc(OC)cc(OC)c2)C(=O)[C@H](CC(C)C)N1C(=O)NC1CCCCC1", "note": "(stereo partly drawn) [Example 42, N-Ethyl[1-cyclohexylcarbamoyl-4-(3,5-dimethoxybenzyl)-6-(S)-isobutyl-5-oxo-piperazin-2-yl]-acetamide]", "values": [{"measurement": "pEC50", "setting": "PPAR-gamma", "value": 6.60}]}
{"smiles": "COc1cc(CN2CC(CC(=O)NCCO)N(C(=O)NC3CCCCC3)[C@@H](CC(C)C)C2=O)cc(OC)c1", "note": "(stereo partly drawn) [Example 43, N-(2-Hydroxyethyl)[1-cyclohexylcarbamoyl-4-(3,5-dimethoxybenzyl)-6-(S)-isobutyl-5-oxo-piperazin-2-yl]-acetamide]", "values": [{"measurement": "pEC50", "setting": "PPAR-gamma", "value": "< 6.00"}]}
{"smiles": "Cc1c(C)c2c(c(C)c1O)CCC(C)(COc1ccc(CC3SC(=O)NC3=O)cc1)O2", "note": "(centres unmarked) [troglitazone, reference compound]", "values": [{"measurement": "Serum Glucose (% reduction)", "setting": "[1]; 10 mg/kg at 0, 24 and 48 h", "value": "25±2", "unit": "%"}]}
